Experimental findings from PubChem BioAssay (NCI) are described below.

Some test systems named below: DLD-1 colon; DMS 114 small cell lung; HOP-18 NSCLC; KM20L2 colon; SNB-78 CNS; BT-549 breast; DU-145 prostate; MDA-MB-435; NCI/ADR-RES ovarian; T-47D breast.
Common to all, as to experiment: NCI anticancer screen, dose series, 48 h

“And” between values parts separate entries of the source, which are not always exact repeats. Equal values may be shown once.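 Five compound concentrations were applied to cells in 96-well plates for 48 hours; endpoints were derived by simple linear interpolation of the resulting dose-response curve. GI50 = concentration required for 50% inhibition of growth. TGI marks complete inhibition of growth.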

In the case of `CC(C)(C)c1cc2c(OP(c3ccccc3)c3ccccc3)c(c1)Cc1cc(C(C)(C)C)cc(c1OP(c1ccccc1)c1ccccc1)Cc1cc(C(C)(C)C)cc(c1OP(c1ccccc1)c1ccccc1)Cc1cc(C(C)(C)C)cc(c1OP(c1ccccc1)c1ccccc1)C2`, the GI50 in the assay with DLD-1 colon, with DMS 114 small cell lung and with KM20L2 colon was more than 50 µM throughout. For the same molecule, the TGI in the assay on DLD-1 colon is more than 50 µM; with DMS 114 small cell lung, more than 50 µM; with HOP-18 NSCLC, more than 5 µM; in the assay with KM20L2 colon, more than 50 µM; in the assay with SNB-78 CNS, more than 5 µM.

Take `COc1ccc2c3c([nH]c2c1[N+](=O)[O-])C(C)N(C(=O)/C=C/c1ccccc1)CC3` (configuration not stated): the TGI in the assay on KM20L2 colon and in the assay with SNB-78 CNS was more than 100 µM in each case.

`[O-]c1c(-c2ccccc2)[se]c(-c2ccccc2)[n+]1-c1ccccc1`: the TGI in the assay on DLD-1 colon worked out at 4.48 µM; in the assay with DMS 114 small cell lung, 18.7 µM; with HOP-18 NSCLC it was 25.6 µM; in the assay with SNB-78 CNS it was 14 µM.

As for `C=CC1(C)/C(=N\O)C(C)(CC)C(=O)N1O` (configuration not stated), the TGI in the assay with DLD-1 colon, in the assay with DMS 114 small cell lung, in the assay on HOP-18 NSCLC and with SNB-78 CNS was more than 100 µM in each case.

With `O=S(O)CCCCSSCCCCS(=O)(O)=S`, the TGI in the assay on DLD-1 colon, with DMS 114 small cell lung, in the assay with HOP-18 NSCLC, with KM20L2 colon and in the assay with SNB-78 CNS was more than 100 µM each time.

Consider `COc1cccc(C(=O)O)c1Cc1cccc2ccccc12`, for which the TGI with DLD-1 colon, in the assay with HOP-18 NSCLC and with KM20L2 colon was more than 100 µM throughout.

Regarding `NC(N)=NS(=O)(=O)c1ccc(NC(=O)c2ccc(Cl)c3c(Nc4ccc(S(=O)(=O)N=C(N)N)cc4)c4ccccc4nc23)cc1`, the TGI in the assay with DLD-1 colon, with DMS 114 small cell lung, with HOP-18 NSCLC, in the assay with KM20L2 colon and with SNB-78 CNS was more than 100 µM each time.

With `CP(=O)(CCSc1ccccc1)c1ccccc1` (configuration not stated), the TGI with DLD-1 colon, in the assay with DMS 114 small cell lung, in the assay on HOP-18 NSCLC, in the assay on KM20L2 colon and in the assay with SNB-78 CNS was more than 100 µM throughout.

In the case of `CC(=O)C1C(=O)C(=O)N(c2ccc(Cl)cc2C)C1=O` (configuration not stated), the TGI in the assay with DLD-1 colon, with DMS 114 small cell lung, in the assay with HOP-18 NSCLC, in the assay with KM20L2 colon and in the assay with SNB-78 CNS was more than 100 µM in each case.

As for `CCOc1ccccc1N=C(NC(=O)CC)SC`, the results for the GI50 in the assay with DLD-1 colon and in the assay with KM20L2 colon were more than 10 µM and more than 100 µM, respectively. Besides, the TGI in the assay on DLD-1 colon was more than 100 µM; with DMS 114 small cell lung it was more than 10 µM; in the assay on HOP-18 NSCLC, more than 10 µM; with KM20L2 colon, more than 100 µM; with SNB-78 CNS, more than 10 µM.

`C/C(=C\c1ccccc1)C(O)S(=O)(=O)O` (configuration not stated): the TGI with DLD-1 colon, in the assay with DMS 114 small cell lung, in the assay with HOP-18 NSCLC and in the assay on KM20L2 colon was more than 100 µM in each case.

As to `CCOC(=O)NC(=O)c1cn(-c2ccc(CCOC(=O)CCCCCCCCC(=O)OCCc3ccc(-n4cc(C(=O)NC(=O)OCC)c(=O)[nH]c4=O)cc3)cc2)c(=O)[nH]c1=O`, the TGI in the assay on DLD-1 colon, with DMS 114 small cell lung, in the assay with HOP-18 NSCLC, with KM20L2 colon and in the assay on SNB-78 CNS was more than 100 µM throughout.

Regarding `NC(CCc1nc(-c2ccccc2)cs1)C(=O)O` (configuration not stated), the TGI with DLD-1 colon, in the assay on DMS 114 small cell lung, in the assay with HOP-18 NSCLC and in the assay on SNB-78 CNS was more than 100 µM throughout.

On to `CCCCC/C=C1\CCC(CN2CCOCC2)C1=O` (configuration not stated), for which the TGI in the assay with BT-549 breast is 32.3 µM; with DLD-1 colon, 19.2 µM; in the assay with DMS 114 small cell lung, 38.5 µM; with DU-145 prostate it was 33.2 µM; in the assay with HOP-18 NSCLC, 27.5 µM; in the assay with KM20L2 colon, 19 µM. Further, the TGI in the assay with MDA-MB-435 came to 17.8 µM; in the assay with NCI/ADR-RES ovarian, 54.6 µM; in the assay on SNB-78 CNS, 47.4 µM; in the assay on T-47D breast, 9.95 µM.

In the case of `COc1cc(C(C)c2cc3c(cc2OCCOCCOc2cc4c(cc2C(C)c2cc(OC)c(OC)c(OC)c2)OCO4)OCO3)cc(OC)c1OC` (configuration not stated), the GI50 with DLD-1 colon, in the assay with DMS 114 small cell lung and in the assay on KM20L2 colon was more than 100 µM each time. Also, the TGI with DLD-1 colon is more than 100 µM; in the assay with DMS 114 small cell lung, more than 100 µM; with HOP-18 NSCLC, more than 10 µM; in the assay on KM20L2 colon it was more than 100 µM; in the assay on SNB-78 CNS, more than 10 µM.

Regarding `CC(C)[C@H](COC(C)(C)C)N=CN1CSc2ccccc21`, the TGI in the assay with DLD-1 colon was more than 100 µM; in the assay with DMS 114 small cell lung, 62.1 µM; in the assay on KM20L2 colon, more than 100 µM; with SNB-78 CNS it was 81.5 µM.

`Cc1cc(Cl)ccc1N1C(=O)C(=O)C(c2nc3ccccc3s2)/C(=N\NC(=O)c2ccccc2O)C1=O` (configuration not stated): the TGI in the assay on DLD-1 colon, in the assay with DMS 114 small cell lung, in the assay on HOP-18 NSCLC, in the assay on KM20L2 colon and with SNB-78 CNS was more than 100 µM each time.

On to `C#Cc1cccc(N2C(=O)CC(=P(c3ccccc3)(c3ccccc3)c3ccccc3)C2=O)c1`, for which the figures for the TGI in the assay with DLD-1 colon, with DMS 114 small cell lung and in the assay with SNB-78 CNS were more than 100 µM, 72.6 µM and more than 100 µM, respectively.

For the molecule `Cc1ccc(S(=O)(=O)NC(C)C(=O)O)cc1` (configuration not stated), the TGI with DLD-1 colon, in the assay on HOP-18 NSCLC and with KM20L2 colon was more than 100 µM each time.

For `C=CCCC12CCCC(=O)C1Sc1ccc3ccccc3c12` (configuration not stated), the TGI is 71.5 µM with DLD-1 colon, 61.2 µM with HOP-18 NSCLC and 60.8 µM in the assay with SNB-78 CNS.

With `NCC(=O)OCN1C(=O)C2C3C=CC(C2C1=O)C1C2C(=O)N(COC(=O)CN)C(=O)C2C31` (configuration not stated), the TGI is 54.2 µM and 60.8 µM in the assay on DLD-1 colon; 39 µM and 36.8 µM in the assay on DMS 114 small cell lung; 54.4 µM and 73.7 µM in the assay on HOP-18 NSCLC; 52.9 µM and 81.9 µM in the assay on KM20L2 colon; more than 100 µM in the assay with SNB-78 CNS.
